Results from patent publication US5698556A, “Methotrexate analogs and methods of using same” (priority 1995, dated 1997).
Read-outs that look alike come from different tables or passages of the source.

Experiments:
[1] = compared with MTX; cited from earlier work
[2] = system: K562 cells; experiment: Growth inhibition of human leukemia cells (K562); type: cell-based; settings: for IC50: Homo sapiens; for times more compound as compared with MTX required to inhibit cell growth by 50%: relative to MTX
Description: The IC50 value is the drug concentration which inhibits cancer cell growth by 50%.
Two suspensions of human leukemia cell lines were employed in this study. The myelogenous leukemia cell line K562 was cultured in RPMI 1640 (JRH Biosciences) containing 10% filtered fetal bovine serum (FBS; Irvine Scientific), and the lymphoblastic leukemia cell line CCRF/CEM was cultured in RPMI 1640 containing 20% FBS, 100 U/ml penicillin (GIBCO Laboratories, Grand Island, N.Y.), and 100 μg/ml streptomycin (GIBCO). Cells were maintained at 37° C. with 5% CO2 in air, and were cultured using standard sterile tissue culture techniques.
Prior to toxicity studies, cells were maintained 48 hours in the absence of added inhibitor. Logarithmically growing cells were inoculated at 1×10^4 cells/ml in tissue culture grade Petri dishes (35×10 mm), and, following a suitable recovery period, were treated with chemical agents. Inhibitor concentrations ranging from 10^-12 to 10^-4 M were added to the cultures except for a control culture, which contained no added drug. Cell counts were performed by hematometer counting during 120 hours of continuous exposure to the drugs. The IC50 value was obtained by interpolation from graphs of percent growth inhibition plotted against drug concentration.

[3] = system: CCRF/CEM Cells; experiment: Growth inhibition of human leukemia cells (CCRF/CEM); type: cell-based; settings: 120 hours continuous exposure
Description: Two suspensions of human leukemia cell lines were employed in this study. […] Cells were maintained at 37° C. with 5% CO2 in air, and were cultured using standard sterile tissue culture techniques.
Prior to toxicity studies, cells were maintained 48 hours in the absence of added inhibitor. […] Inhibitor concentrations ranging from 10^-12 to 10^-4 M were added to the cultures except for a control culture, which contained no added drug. Cell counts were performed by hematometer counting during 120 hours of continuous exposure to the drugs. The IC50 value was obtained by interpolation from graphs of percent growth inhibition plotted against drug concentration.

[4] = target: T1, Chicken Liver DHFR (Gallus gallus, UniProt P00378); experiment: Inhibition of DHFR, spectrophotometric assay (chicken liver DHFR); type: biochemical; settings: for IC50: chicken liver DHFR, pH 7.0, read-out: ID50 (drug concentration which inhibits enzyme activity by 50%)
T1 construct: purchased Sigma Chemical Co. (St. Louis, Mo.); host or cells: chicken liver
T1 sequence (P00378 1-189): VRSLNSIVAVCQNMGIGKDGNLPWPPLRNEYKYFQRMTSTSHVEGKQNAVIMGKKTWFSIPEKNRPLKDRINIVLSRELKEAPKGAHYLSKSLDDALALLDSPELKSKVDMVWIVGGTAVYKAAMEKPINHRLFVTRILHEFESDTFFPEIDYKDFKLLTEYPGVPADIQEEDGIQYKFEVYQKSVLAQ
Description: (§1) Tests were conducted to determine the ID50 value for methotrexate analogs of the present invention. The ID50 value is the drug concentration which inhibits enzyme activity by 50%. […] DHFR activity was measured as the decrease over time in absorbance at 340 nm.
(§2) DHFR was diluted prior to each experiment in 50 mM potassium phosphate buffer (pH 7.0) containing 0.1 mM NADPH and 0.1% BSA.
(§3) Inhibition studies were carried out by adding to a 1.0 ml cuvette the assay solution containing all components except dihydrofolate, and then incubating the solution for 2 minutes at room temperature. The absorbance of the solution at 340 nm was recorded immediately following the addition of dihydrofolate. The mixtures were then incubated at room temperature for 5 minutes, and the absorbance at 340 nm was again recorded. […] ID50 values were determined by interpolation from graphs of percent of inhibition plotted against drug concentration.

[5] = target: T2, L. casei DHFR (Lacticaseibacillus casei, UniProt P00381); experiment: Inhibition of DHFR, spectrophotometric assay (L. casei DHFR); type: biochemical; settings: pH 7.0, read-out: ID50 (drug concentration which inhibits enzyme activity by 50%)
T2 construct: purchased New England Enzyme Center (Boston, Mass.); host or cells: MTX-resistant L. casei
Description: as §1, §2, §3

[6] = Metabolism in rabbit liver homogenate (formation of 7-OH-MTX); type: in vitro ADME, New Zealand white rabbit; settings: pH 7.6
Description: For these experiments, freshly isolated liver from a New Zealand white rabbit was homogenized in 400 ml of cold buffer of pH 7.6 consisting of 10 mM Tris-HCl, 25 mM sucrose and 10 mM MgCl2. The homogenate was centrifuged at 1000×g for 20 minutes at 4° C., and the resulting pellet was resuspended in about 14 ml of the same buffer. […] Two ml samples of the homogenate were removed at 10 minute intervals. Samples were boiled S minutes to denature the proteins, and then centrifuged to pelletize cell debris. To determine inhibitor and 7-OH-MTX levels, 100 μl of the supernatant was analyzed by HPLC. For HPLC analysis, a Perkin-Elmer 410 LC solvent delivery system and a 5-μm IBM ODS column (4.1×250 mm) with a Guard column were employed. The mobile phase consisted of 0.1M monobasic sodium phosphate and 0.1M Tris-HCl in methanol at a final pH of 7.6. […] Detector output was recorded and integrated by a Perkin-Elmer LCI 100 integrator.

[7] = cited from earlier work
[8] = K562 cells, 120 hours continuous exposure, read-out: IC50

T2 sequence (P00381 whole entry): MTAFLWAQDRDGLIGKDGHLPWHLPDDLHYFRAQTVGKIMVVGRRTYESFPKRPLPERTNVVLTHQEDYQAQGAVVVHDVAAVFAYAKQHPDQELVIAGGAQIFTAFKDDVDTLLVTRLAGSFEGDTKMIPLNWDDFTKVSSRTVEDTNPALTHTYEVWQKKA

SMILES | IC50 [2, 8] | IC50 [3] | IC50 [4] | IC50 [5] | also measured
CN(Cc1cnc2nc(N)nc(N)c2n1)c1c(F)cc(C(=O)N[C@@H](CCC(=O)O)C(=O)O)cc1F [3',5'-difluoroMTX] | – | – | – | – | antifolate antagonism / biological activity, in words [1]: little or no increase in biological activity as compared with MTX
CN(Cc1nc2c(N)nc(N)nc2nc1Cl)c1ccc(C(=O)N[C@@H](CCC(=O)O)C(=O)O)cc1 [7-Cl-MTX] | 10000 nM | 10000 nM | 20000 nM | 50000 nM | –
CN(Cc1nc2c(N)nc(N)nc2nc1N=[N+]=[N-])c1ccc(C(=O)N[C@@H](CCC(=O)O)C(=O)O)cc1 [7-N3 -MTX] | 1000 nM | 2000 nM | 400 nM | 200 nM | –
CCOc1nc2nc(N)nc(N)c2nc1CN(C)c1ccc(C(=O)N[C@@H](CCC(=O)O)C(=O)O)cc1 [7-OC2 H5 -MTX] | 850 nM | 4000 nM | 2000 nM | 1200 nM | –
CC(C)Oc1nc2nc(N)nc(N)c2nc1CN(C)c1ccc(C(=O)N[C@@H](CCC(=O)O)C(=O)O)cc1 [7-OCH(CH3)2 -MTX] | 1000 nM | 6000 nM | 200 nM | 670 nM | –
CN(Cc1nc2c(N)nc(N)nc2nc1P(=O)(O)O)c1ccc(C(=O)N[C@@H](CCC(=O)O)C(=O)O)cc1 [7-P(O)(OH)2 -MTX] | 6000 nM | – | 10000 nM | 15000 nM | –
Cc1nc2nc(N)nc(N)c2nc1CN(C)c1ccc(C(=O)N[C@@H](CCC(=O)O)C(=O)O)cc1 [7-methyl substituted MTX] | – | – | – | – | antifolate antagonism / biological activity, in words [1]: impaired antifolate antagonism
CN(Cc1cnc2nc(N)nc(N)c2n1)c1ccc(C(=O)N[C@@H](CCC(=O)O)C(=O)O)cc1 [MTX] | – | 11 nM | – | – | IC50 ([2]; K562, 120 h): 8 nM; metabolism to 7-OH-MTX, in words ([6]; over an hour, 37° C.): substantially metabolized to 7-OH-MTX within an hour; metabolised at 10 min ([6]; rabbit, liver homogenate): ~50%; remaining at 1 h ([6]; rabbit, liver homogenate): < 25%; renal and hepatic toxicity, in words ([7]; high dose regimen): associated with renal and hepatic toxicity; conversion in vivo, in words ([7]; man and monkeys): converted in vivo to 7-hydroxymethotrexate (7-OH-MTX)

Now from value to compound, other results behind:

IC50 [2, 8] | IC50 [3] | IC50 [4] | IC50 [5] | SMILES | also measured
300 nM | 300 nM | 300 nM | 200 nM | CNc1nc2nc(N)nc(N)c2nc1CN(C)c1ccc(C(=O)N[C@@H](CCC(=O)O)C(=O)O)cc1 [7-CH3 NH-MTX, 4-amino-7-methylamino-N-10-methylpteroylglutamic acid] | times more compound as compared with MTX required to inhibit cell growth by 50% ([2]; K562 and CCRF/CEM cells): 25-40 times
850 nM | 5000 nM | 1500 nM | 500 nM | CN(Cc1nc2c(N)nc(N)nc2nc1F)c1ccc(C(=O)N[C@@H](CCC(=O)O)C(=O)O)cc1 [7-F-MTX] | –
50 nM | 76 nM | 140 nM | 168 nM | CN(Cc1nc2c(N)nc(N)nc2nc1N)c1ccc(C(=O)N[C@@H](CCC(=O)O)C(=O)O)cc1 [7-NH2 -MTX, 4,7-diamino-N-10-methylpteroylglutamic acid] | ability to inhibit growth of leukemia cell lines, in words ([2]; K562 and CCRF/CEM cells): still effective at inhibiting the growth of the leukemia cell lines; times more compound as compared with MTX required to inhibit cell growth by 50% ([2]; K562 and CCRF/CEM cells): 6-7 times; effectiveness as DHFR inhibitor, in words ([4]; chicken liver and L. casei DHFR): still relatively effective as a DHFR inhibitor; metabolism to 7-OH-MTX, in words [6]: not even a slight metabolism of 7-NH2 -MTX to 7-OH-MTX could be detected over an hour
500 nM | 5000 nM | 500 nM | 750 nM | CC(C)Nc1nc2nc(N)nc(N)c2nc1CN(C)c1ccc(C(=O)N[C@@H](CCC(=O)O)C(=O)O)cc1 [7-NHCH(CH3)2 -MTX] | –
450 nM | 4500 nM | 750 nM | 1000 nM | COc1nc2nc(N)nc(N)c2nc1CN(C)c1ccc(C(=O)N[C@@H](CCC(=O)O)C(=O)O)cc1 [7-OCH3 -MTX] | –
